Data published in publication PMC9260506, “Identification of Highly Cross-Reactive Mimotopes for a Public T Cell Response in Murine Melanoma” (Frontiers in Immunology, 2022).

Assays:
[1] = molecular target: 7PPG2 TCR, recombinant soluble (mouse) (UniProt P01849); experiment: SPR; conditions: peptide-MHC
[2] = system: B16F10 melanoma cells; experiment: Prophylactic vaccination and B16F10 tumor challenge; type: in vivo, C57BL/6 mice
Experimental: (§1) MSA and TTR long peptide fusions were produced in house by the Wittrup lab as previously described ([23]). Long peptide-amphiphile fusion vaccines were obtained from Northwestern University Peptide Synthesis Core (p15E and mimotopes) or produced in house by the Irvine lab as previously described (OVA amph) ([16], [22]). Lipo-CpG was produced in house by the Irvine lab as previously described ([16], [22]). 5 nmol of vaccine and 1.24 nmol of lipo-CpG per injection were used in a volume of 100 μL PBS, sterile filtered, and injected subcutaneously at the tail base, 50 μL per side, using 31G insulin syringes. Mice were primed and then boosted at 2 and 4 weeks following prime (n=5 per group).
Two weeks after the second vaccine boost, 10^5 B16F10 cells in 100 μL PBS were injected subcutaneously on the right flank using 29G insulin syringes. Tumor areas were calculated by multiplying length and width taken by caliper measurement every other day beginning three days post-tumor inoculation. Mice were euthanized when tumor area exceeded 100 mm^2.

[3] = system: 7PPG2-transduced 58^-/- T cells; experiment: T cell activation, peptide-loaded DC2.4 co-culture, IL-2 ELISA (7PPG2); type: cell-based, murine; conditions: DC2.4 cells loaded with various peptide concentrations 2-3 h, 24 h co-culture
Experimental: (§2) T cell line generation: For creation of T cell lines, TCR alpha chain was linked to TCR beta chain by a P2A sequence, followed by EGFP fluorescent protein sequence, in the MP71 retroviral vector. 80% confluent HEK293-T cells were transfected with 2 μg of TCR plasmid and 1 μg pCL-Eco helper plasmid with 6 μg (3× DNA mass) PEI (Santa Cruz Biotech) to create retrovirus. 2 days later, the supernatant was then used to transduce CD8^+ 58^-/^- cells with 0.8 μg/mL polybrene (Santa Cruz Biotech). Cells were spinfected at 1000×g and 32°C for 1.5 hours. 2 days later, transduction was assessed by expression of EGFP and by staining with an antibody against murine TCR β chain. If necessary, cells were sorted on EGFP on a FACSAria (BD) to obtain a >95% transduced population.
(§3) DC co-culture: 25,000 DC2.4 cells per well were incubated with various concentrations of peptide in 100 μL RPMI complete media for 2-3 hours before the addition of T cells. 25,000 T cells per well were added in 100 μL RPMI complete media in 96 well plates.
(§4) After 24 hours, plates were spun down at 500×g for 5 minutes, and 2×100 μL samples of supernatant were saved and frozen at -80°C. T cell activation was assessed using mouse IL-2 ELISA kits (Invitrogen), with samples diluted 1:2 - 1:20 for comparison to the standard curve. Absorbance values were measured with a Tecan Infinite m200 Pro plate reader.

[4] = system: p15E-pulsed splenocytes; experiment: In vivo killing assay of peptide-pulsed donor splenocytes; design: species or system C57BL/6 mice; conditions: day 36 spleens, 24 h after i.v. injection of about 1:1 CFSE-dyed p15E-pulsed and violet-dyed OVA-pulsed splenocytes; amphiphile vaccines days 0, 14, 28; N=3 mice/group
Experimental: as §1
Experimental mice were vaccinated as described above. A separate group of age-matched female C57BL/6 donor mice were euthanized and spleens removed. In a sterile hood, single cell suspensions were created by mashing spleens through 70 μm mesh filters. Red blood cells were lysed using ACK lysis buffer (Thermo), and cells were washed twice with PBS. […] 24 hours later, experimental mice were euthanized and splenocytes analyzed to compare ratios of CFSE-dyed to Violet-dyed cells. Samples were run on a Cytoflex and data analyzed in FlowJo v10.

[5] = system: 7PPG4-transduced 58^-/- T cells; experiment: T cell activation, peptide-loaded DC2.4 co-culture, IL-2 ELISA (7PPG4); type: cell-based, murine; conditions: DC2.4 cells loaded with various peptide concentrations 2-3 h, 24 h co-culture
Experimental: as §2, §3, §4

[6] = system: CD8^+ T cells; experiment: Intracellular cytokine staining of peripheral blood after vaccination; type: in vivo, C57BL/6 mice; conditions: for CD8^+ T cell reactivity to p15E stimulation (ICS): Figure 7C
Text: MSA and TTR long peptide fusions were produced in house by the Wittrup lab as previously described ([23]). Long peptide-amphiphile fusion vaccines were obtained from Northwestern University Peptide Synthesis Core (p15E and mimotopes) or produced in house by the Irvine lab as previously described (OVA amph) ([16], [22]). Lipo-CpG was produced in house by the Irvine lab as previously described ([16], [22]). […] Mice were primed and then boosted at 2 and 4 weeks following prime (n=5 per group).
One week following each vaccine boost, blood samples were drawn retro-orbitally from each mouse. 50-80 μL was used per well for stimulation with peptide, and excess blood from each group was pooled and used for a positive and negative control well per group. Red blood cells were lysed with ACK lysis buffer (Thermo), and then cells were washed once with FACS buffer. In 100 μL/well RPMI complete media, sample wells were stimulated with 10 μg/mL peptide (p15E, 7PPG2-mim6, or 7PPG4-mim2), and positive control wells were stimulated with 10 ng/mL PMA and 10 μg/mL ionomycin. Cells were stimulated for two hours before 1 uL/well brefeldin A (BD GolgiPlug) was added, and then cells were incubated for an additional four hours. Cells were washed twice with cold PBS and then stained with Zombie Aqua 1:1000 and Fc block 1:100 in 100 μL/well PBS for 15 minutes at room temperature. Cells were then stained with CD8 APC 1:100 in 100 μL/well FACS buffer for 20 minutes at room temperature. Cells were fixed and permeabilized using 100 μL/well of CytoFix/CytoPerm solution (BD) for 20 minutes at 4°C. Following two washes with Perm/Wash buffer (BD), cells were stained with IFN-γ PE and TNF-α AF488 1:75 each in 50 μL/well Perm/Wash buffer for 30 minutes at 4°C. Following two washes with FACS buffer, samples were run on an LSR II (BD) or Cytoflex (Beckman Coulter) and data analyzed in FlowJo v10. Outliers were identified using the ROUT method with Q = 1% (GraphPad Prism 9).

[7] = molecular target: 7PPG4 TCR; experiment: Steady-state surface plasmon resonance, pMHC on immobilized 7PPG4 TCR; type: binding, mouse; conditions: Figure 5C
Text: Recombinant soluble TCRs used for yeast library selections and surface plasmon resonance experiments were produced using a baculovirus expression system in Hi5 insect cells. TCR alpha chain extracellular domain sequences were cloned into pAcGP67a vector containing a 3C protease site ([…]) followed by an acidic leucine zipper, AviTag biotinylation site ([…]), and poly-histidine tag (6×His). TCR beta chain extracellular domain sequences were cloned into pAcGP67a vector containing a 3C site followed by a basic leucine zipper and poly-histidine tag. 2 μg of each plasmid was transfected into SF9 insect cells with BestBac 2.0 linearized baculovirus DNA (Expression Systems) using Cellfectin II reagent (Invitrogen). SF9s were then infected with 1:1000 primary transfection supernatant to amplify the virus. Titration of alpha and beta chain viruses was performed to identify the optimal ratio of the two viruses for heterodimer formation. Protein was then produced by large scale infection of Hi5 cells as previously described ([10]). Briefly, secreted protein was purified using HisPur Ni-NTA resin (Thermo) for immobilized metal affinity chromatography (IMAC) and biotinylated overnight at 4°C using biotin (Avidity), ATP, and BirA ligase. […] Biotinylation efficiency was assessed by adding streptavidin (ThermoFisher) to ~2 ug of protein and running an SDS-PAGE gel. […]

[8] = molecular target: p15E peptide presented by H-2K^b, refolded pMHC (mouse | human | murine leukemia virus); experiment: SPR

7PPG4-mim2 mimotope () presented by H-2K^b, refolded pMHC (from UniProt P61769 21-119)
Kd [1]: 42 µM

KSPWFTTL [p15E, previously identified MLVenv peptide presented by the class I MHC H-2K^b]
Survival after tumor challenge ([2]; first experiment, 1×10^5 B16F10 cells six weeks after prime, amphiphile vaccines, euthanized at tumor area >100 mm^2, N=5, Figure 7F): identical survival curves
T cell activation (IL-2 secretion) [3]: activated in a dose-dependent manner
Fraction of p15E-pulsed cells remaining [4]: little difference in fraction of p15E-pulsed cells compared to the control group
T cell activation (IL-2 secretion) [5]: activated in a dose-dependent manner
CD8^+ T cell reactivity to p15E stimulation (ICS) ([6]; days 21 and 35, 5 nmol amphiphile vaccine + lipo-CpG, compared with adjuvant-only control): did not show any significant reactivity compared to the control group

VSPWFNTL [7PPG2-mim6, p15E mimotope identified from yeast display pMHC library selection with 7PPG2 TCR]
T cell activation (IL-2 secretion) [3]: much more potently than p15E
Kd ([7]; mimotope or p15E peptide displayed by H-2K^b as analyte, immobilized TCR, 25°C, steady state): > 100 µM
CD8^+ T cell reactivity to 7PPG4-mim2 stimulation (ICS) ([6]; amphiphile vaccine + lipo-CpG, days 21 and 35, Supplementary Figure 7B): minimal reactivity to 7PPG4-mim2

7ELG1 TCR, recombinant soluble (from UniProt P01849)
Kd [8]: 39 µM

7PPG3 TCR, recombinant soluble (from UniProt P01849)
Kd [8]: 20 µM

KSPWFITL [7PPG4-mim2, p15E mimotope identified from yeast display pMHC library selection with 7PPG4 TCR]
Autoreactivity in vivo ([2]; all in vivo studies with the amphiphile vaccine): did not show evidence of deleterious autoreactivity
affinity for 7PPG4 relative to p15E ([7]; SPR, 5 μM compared to 26 μM): five-fold higher affinity
T cell activation (IL-2 secretion) [5]: much more potently than p15E
CD8^+ T cell reactivity to 7PPG2-mim6 stimulation (ICS) ([6]; amphiphile vaccine + lipo-CpG, days 21 and 35, Supplementary Figure 7A): some cross reactivity to 7PPG2-mim6 stimulation
CD8^+ T cells reacting to 7PPG4-mim2 stimulation (ICS) ([6]; day 21, 5 nmol amphiphile vaccine + lipo-CpG, Supplementary Figure 7B, N=5): 40 % of CD8^+ T cells
CD8^+ T cell reactivity to p15E stimulation (ICS) ([6]; day 35, 5 nmol amphiphile vaccine + 1.24 nmol lipo-CpG, boosts days 14 and 28, N=5): 40%

SIINFEKL [OVA]
Fraction of p15E-pulsed cells remaining [4]: high fraction of p15E-pulsed cells remaining
CD8^+ T cell reactivity to OVA (ICS) ([6]; killing-assay study, day 35, OVA amphiphile vaccine day 0, boosts days 14 and 28, N=3 mice/group, Supplementary Figure 6B): 20%

7PPG2 TCR, recombinant soluble (from UniProt P01849)
Kd [8]: 23 µM

SIYRYYGL [2C TCR cognate antigen, control peptide]
T cell activation (IL-2 secretion) [3]: no activation
T cell activation (IL-2 secretion) [5]: no activation
